Results: PubChem BioAssay (NCI)
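Here, GI50 denotes the concentration required for 50% inhibition of growth. TGI: total growth inhibition.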

Experiments:
Experiment in all cases: DTP human tumour cell line panel, 384-well format
786-0 renal = test system: 786-0 renal
A498 renal = test system: A498 renal
A549 NSCLC = test system: A549 NSCLC
ACHN renal = test system: ACHN renal
BT-549 breast = test system: BT-549 breast
CAKI-1 renal = test system: CAKI-1 renal
CCRF-CEM leukemia = test system: CCRF-CEM leukemia
COLO 205 colon = test system: COLO 205 colon
DU-145 prostate = test system: DU-145 prostate
EKVX NSCLC = test system: EKVX NSCLC
HCC-2998 colon = test system: HCC-2998 colon
HCT-116 colon = test system: HCT-116 colon
HCT-15 colon = test system: HCT-15 colon
HL-60(TB) leukemia = test system: HL-60(TB) leukemia
HOP-62 NSCLC = test system: HOP-62 NSCLC
HOP-92 NSCLC = test system: HOP-92 NSCLC
HS 578T breast = test system: HS 578T breast
HT29 colon = test system: HT29 colon
IGROV1 ovarian = test system: IGROV1 ovarian
K-562 leukemia = test system: K-562 leukemia
KM12 colon = test system: KM12 colon
LOX IMVI melanoma = test system: LOX IMVI melanoma
M14 melanoma = test system: M14 melanoma
MALME-3M melanoma = test system: MALME-3M melanoma
MCF7 breast = test system: MCF7 breast
MDA-MB-231 breast = test system: MDA-MB-231 breast
MDA-MB-435 melanoma = test system: MDA-MB-435 melanoma
MDA-MB-468 breast = test system: MDA-MB-468 breast
MOLT-4 leukemia = test system: MOLT-4 leukemia
NCI-H226 lung = test system: NCI-H226 lung
NCI-H23 lung = test system: NCI-H23 lung
NCI-H322M lung = test system: NCI-H322M lung
NCI-H460 NSCLC = test system: NCI-H460 NSCLC
NCI-H522 lung = test system: NCI-H522 lung
NCI/ADR-RES ovarian = test system: NCI/ADR-RES ovarian
OVCAR-3 ovarian = test system: OVCAR-3 ovarian
OVCAR-4 ovarian = test system: OVCAR-4 ovarian
OVCAR-5 ovarian = test system: OVCAR-5 ovarian
OVCAR-8 ovarian = test system: OVCAR-8 ovarian
PC-3 prostate = test system: PC-3 prostate
RPMI-8226 leukemia = test system: RPMI-8226 leukemia
RXF 393 renal = test system: RXF 393 renal
SF-268 CNS = test system: SF-268 CNS
SF-295 CNS = test system: SF-295 CNS
SF-539 CNS = test system: SF-539 CNS
SK-MEL-28 melanoma = test system: SK-MEL-28 melanoma
SK-MEL-5 melanoma = test system: SK-MEL-5 melanoma
SK-OV-3 ovarian = test system: SK-OV-3 ovarian
SN12C renal = test system: SN12C renal
SNB-19 CNS = test system: SNB-19 CNS
SNB-75 CNS = test system: SNB-75 CNS
SR leukemia = test system: SR leukemia
SW-620 colon = test system: SW-620 colon
T-47D breast = test system: T-47D breast
TK-10 renal = test system: TK-10 renal
U251 glioblastoma = test system: U251 glioblastoma
UACC-257 melanoma = test system: UACC-257 melanoma
UO-31 renal = test system: UO-31 renal

For O=C(Nc1cccc2cccnc12)c1ccc(N2C(=O)[C@@H]3[C@H](C2=O)[C@@H]2C=C[C@H]3C2)cc1, the GI50 ([…]-0 renal) was 21 µM, the TGI (786-0 renal) was 59.9 µM and the GI50 (A498 renal) was 25.9 µM. It also gave a TGI (A498 renal) of over 100 µM, a GI50 (A549 NSCLC) of 32.2 µM and a TGI (A549 NSCLC) of over 100 µM. The GI50 (ACHN renal) was 45.1 µM, the TGI (ACHN renal) was over 100 µM and the GI50 (BT-549 breast) was 12.6 µM. The TGI (BT-549 breast) was 30.5 µM, the GI50 (CAKI-1 renal) was 28.4 µM and the TGI (CAKI-1 renal) was over 100 µM. The GI50 (CCRF-CEM leukemia) was 16.8 µM, the TGI (CCRF-CEM leukemia) was 42.3 µM and the GI50 (COLO 205 colon) was 37.6 µM. For the same compound, the TGI (COLO 205 colon) was over 100 µM, the GI50 (DU-145 prostate) was 26.2 µM and the TGI (DU-145 prostate) was over 100 µM. It also gave a GI50 (EKVX NSCLC) of 25.5 µM, a TGI (EKVX NSCLC) of over 100 µM and a GI50 (HCC-2998 colon) of 20.1 µM. For the same compound, the TGI (HCC-2998 colon) was 41.6 µM, the GI50 (HCT-116 colon) was 38.3 µM and the TGI (HCT-116 colon) was over 100 µM. It also gave a GI50 (HCT-15 colon) of 26.1 µM, a TGI (HCT-15 colon) of 98.2 µM and a GI50 (HL-60(TB) leukemia) of 12.3 µM. It also gave a TGI (HL-60(TB) leukemia) of 24.9 µM, a GI50 (HOP-62 NSCLC) of 21.7 µM and a TGI (HOP-62 NSCLC) of 74.7 µM. It also gave a GI50 (HOP-92 NSCLC) of 43.7 µM, a TGI (HOP-92 NSCLC) of over 100 µM and a GI50 (HS 578T breast) of 29.3 µM. For the same compound, the TGI (HS 578T breast) was 93.7 µM, the GI50 (HT29 colon) was 14.4 µM and the TGI (HT29 colon) was 29.8 µM. It also gave a GI50 (IGROV1 ovarian) of 32.5 µM, a TGI (IGROV1 ovarian) of over 100 µM and a GI50 (K-562 leukemia) of 11.6 µM. It also gave a TGI (K-562 leukemia) of 25.9 µM, a GI50 (KM12 colon) of 32.3 µM and a TGI (KM12 colon) of over 100 µM. It also gave a GI50 (LOX IMVI melanoma) of 32.5 µM, a TGI (LOX IMVI melanoma) of 89.6 µM and a GI50 (M14 melanoma) of 43.5 µM. The TGI (M14 melanoma) was over 100 µM, the GI50 (MALME-3M melanoma) was 27.3 µM and the TGI (MALME-3M melanoma) was 88 µM. The GI50 (MCF7 breast) was 22.9 µM, the TGI (MCF7 breast) was over 100 µM and the GI50 (MDA-MB-231 breast) was 36.3 µM. It also gave a TGI (MDA-MB-231 breast) of over 100 µM, a GI50 (MDA-MB-435 melanoma) of 46.3 µM and a TGI (MDA-MB-435 melanoma) of over 100 µM. For the same compound, the GI50 (MDA-MB-468 breast) was 3.84 µM, the TGI (MDA-MB-468 breast) was 23.6 µM and the GI50 (MOLT-4 leukemia) was 16 µM. It also gave a TGI (MOLT-4 leukemia) of 29.8 µM, a GI50 (NCI-H226 lung) of 18 µM and a TGI (NCI-H226 lung) of 50 µM. For the same compound, the GI50 (NCI-H23 lung) was 16.9 µM, the TGI (NCI-H23 lung) was 42.6 µM and the GI50 (NCI-H322M lung) was 42 µM. For the same compound, the TGI (NCI-H322M lung) was over 100 µM, the GI50 (NCI-H460 NSCLC) was 20.5 µM and the TGI (NCI-H460 NSCLC) was 43.5 µM. For the same compound, the GI50 (NCI-H522 lung) was 16.4 µM, the TGI (NCI-H522 lung) was 32.8 µM and the GI50 (NCI/ADR-RES ovarian) was 12 µM. For the same compound, the TGI (NCI/ADR-RES ovarian) was 26.7 µM, the GI50 (OVCAR-3 ovarian) was 25.3 µM and the TGI (OVCAR-3 ovarian) was over 100 µM. For the same compound, the GI50 (OVCAR-4 ovarian) was 21.6 µM, the TGI (OVCAR-4 ovarian) was over 100 µM and the GI50 (OVCAR-5 ovarian) was 56.8 µM. It also gave a TGI (OVCAR-5 ovarian) of over 100 µM, a GI50 (OVCAR-8 ovarian) of 27.8 µM and a TGI (OVCAR-8 ovarian) of 94.6 µM. It also gave a GI50 (PC-3 prostate) of 26 µM, a TGI (PC-3 prostate) of 70.4 µM and a GI50 (RPMI-8226 leukemia) of 21 µM. For the same compound, the TGI (RPMI-8226 leukemia) was 36.5 µM, the GI50 (RXF 393 renal) was 0.907 µM and the TGI (RXF 393 renal) was 24.6 µM. The GI50 (SF-268 CNS) was 41.2 µM, the TGI (SF-268 CNS) was over 100 µM and the GI50 (SF-295 CNS) was 17.7 µM. The TGI (SF-295 CNS) was 57.4 µM, the GI50 (SF-539 CNS) was 49.1 µM and the TGI (SF-539 CNS) was over 100 µM. For the same compound, the GI50 (SK-MEL-28 melanoma) was 54.5 µM, the TGI (SK-MEL-28 melanoma) was over 100 µM and the GI50 (SK-MEL-5 melanoma) was 18.1 µM. It also gave a TGI (SK-MEL-5 melanoma) of 32.7 µM, a GI50 (SK-OV-3 ovarian) of 57.2 µM and a TGI (SK-OV-3 ovarian) of over 100 µM. It also gave a GI50 (SN12C renal) of 47.8 µM, a TGI (SN12C renal) of over 100 µM and a GI50 (SNB-19 CNS) of 27.2 µM. It also gave a TGI (SNB-19 CNS) of over 100 µM, a GI50 (SNB-75 CNS) of 30 µM and a TGI (SNB-75 CNS) of 98.5 µM. It also gave a GI50 (SR leukemia) of 13.5 µM, a TGI (SR leukemia) of 32.9 µM and a GI50 (SW-620 colon) of 44.9 µM. The TGI (SW-620 colon) was over 100 µM, the GI50 (T-47D breast) was 13 µM and the TGI (T-47D breast) was 27.1 µM. It also gave a GI50 (TK-10 renal) of 28.7 µM, a TGI (TK-10 renal) of over 100 µM and a GI50 (U251 glioblastoma) of 19.4 µM. For the same compound, the TGI (U251 glioblastoma) was over 100 µM, the GI50 (UACC-257 melanoma) was 36.2 µM and the TGI (UACC-257 melanoma) was over 100 µM. The GI50 (UO-31 renal) was 20.1 µM and the TGI (UO-31 renal) was over 100 µM.
